This experiment relates to Dd2 strain of P. falciparum. In words: Activity against the Dd2 strain of P. falciparum (SYBR Green I, 72-h incubation). Conditions: Plasmodium falciparum, DD2, 72 h, read-out: EC^50 Dd2. It is filed as cell-based. Put shortly:
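SYBR Green I signal (ex 485, em 530 nm) measured growth, read after 24 h dark staining in saponin/Triton lysis buffer. Before that, compound-exposed Dd2 cultures (1% parasitemia, 1.0% hematocrit, 0.125% DMSO) grew 72 h at 37° C in low-oxygen gas. Background control: 20 μM mefloquine.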
As to `COc1ccc2c3c(n(C)c2c1)[C@H](CO)N(CC1CCOCC1)CC31CCN(Cc2nccs2)CC1` [Compound 112, (R)-(7′-methoxy-9′-methyl0-2′-((tetrahydro-2H-pyran-4-yl)methyl)-1-(thiazol-2-ylmethyl)-1′,2′,3′,9′-tetrahydrospiro [piperidine-4,4′-pyrido [3,4-b]indol]-1′-yl) methanol], the EC50 worked out at 1100 nM. Consider `CCC(=O)N1CC2(CCN(C(=O)Nc3ccccc3F)CC2)c2c([nH]c3cc(OC)ccc23)[C@H]1CO` [Compound 113, (S)-N-(2-fluorophenyl)-1′-(hydroxymethyl)-7′-methoxy-2′-propionyl-1′,2′,3′,9′-tetrahydrospiro [piperidine-4,4′-pyrido[3,4-b]indole]-1-carboxamide], for which the EC50 worked out at 1100 nM. Regarding `COc1ccc2c3c(n(C)c2c1)[C@H](CO)N(C(=O)Nc1ccc(F)cc1)CC31CCN(S(=O)(=O)c2cccc(F)c2)CC1` [Compound 114, (R)-N-(4-fluorophenyl)-1-((3-fluorophenyl)sulfonyl)-1′-(hydroxymethyl)-7′-methoxy-9′-methyl-3′,9′-dihydrospiro [piperidine-4,4′-pyrido[3,4-b]indole]-2′(1′H)-carboxamide], the EC50 worked out at 951 nM.

In the case of `COc1ccc2c3c(n(C)c2c1)[C@@H](CO)N(C(=O)c1ccccc1)CC31CCN(C(=O)c2ccccc2)CC1` [Compound 115, (S)-(1′-(hydroxymethyl)-7′-methoxy-9′-methylspiro [piperidine-4,4′-pyrido[3,4-b]indol]-1,2′(1′ H,3′H,9′H)-diyl)bis(phenylmethanone)], the EC50 worked out at 1040 nM. The value for `CCC(=O)N1CCC2(CC1)CN(S(=O)(=O)c1ccccc1)[C@@H](CO)c1[nH]c3cc(OC)ccc3c12` [Compound 116, (R)-1-(1′-(hydroxymethyl)-7′-methoxy-2′-(phenylsulfonyl)-1′,2′,3′,9′-tetrahydrospiro [piperidine-4,4′-pyrido[3,4-b]indol]-1-yl) propan-1-one] was 1470 nM. For the compound `COc1ccc2c3c(n(C)c2c1)[C@H](CO)N(C(=O)Nc1ccc(F)cc1)CC31CCN(Cc2cccnc2)CC1` [Compound 117, (R)-N-(4-fluorophenyl)-1′-(hydroxymethyl)-7′-methoxy-9′-methyl-1-(pyridin-3-ylmethyl)-3′,9′-dihydrospiro[piperidine-4,4′-pyrido[3,4-b]indole]-2′(1′H)-carboxamide], the EC50 is 1610 nM. As for `CCC(=O)N1CCC2(CC1)CN(Cc1cc(F)ccc1F)[C@H](CO)c1[nH]c3cc(OC)ccc3c12` [Compound 118, (S)-1-(2′-(2,5-difluorobenzyl)-1′-(hydroxymethyl)-7′-methoxy-1′,2′,3′,9′-tetrahydrospiro [piperidine-4,4′-pyrido[3,4-b]indol]-1-yl) propan-1-one], the figure is 1960 nM.

Consider `COc1ccc(S(=O)(=O)N2CCC3(CC2)CN(Cc2ccncc2)[C@H](CO)c2[nH]c4cc(OC)ccc4c23)cc1` [Compound 119, (S)-(7′-methoxy-1-((4-methoxyphenyl)sulfonyl)-2′-(pyridin-4-ylmethyl)-1′,2′,3′,9′-tetrahydrospiro [piperidine-4,4′-pyrido[3,4-b]indol]-1′-yl) methanol], for which the EC50 stood at 1720 nM.

For `CCCC(=O)N1CC2(C1)CN(S(=O)(=O)c1ccc(C)cc1)[C@@H](CO)c1[nH]c3cc(OC)ccc3c12` [Compound 120, (R)-1-(1′-(hydroxymethyl)-7′-methoxy-2′-tosyl-1′,2′,3′,9′-tetrahydrospiro[azetidine-3,4′-pyrido[3,4-b]indol]-1-yl)butan-1-one], the EC50 is 1650 nM. `COc1ccc2c3c([nH]c2c1)[C@@H](CO)N(C(=O)CN(C)C)CC31CCN(CC2CCCCC2)CC1` [Compound 121, (S)-1-(1-(cyclohexylmethyl)-1′-(hydroxymethyl)-7′-methoxyspiro [piperidine-4,4′-pyrido[3,4-b]indol]-2′(1′H,3′H,9′H)-yl)-2-(dimethylamino) ethanone]: the EC50 was 360 nM.

As for `COc1ccc2c3c([nH]c2c1)[C@H](CO)N(Cc1ccccn1)CC31CCN(Cc2cccc(F)c2)CC1` [Compound 122], the EC50 stood at 421 nM. The value for `COc1ccc2c3c(n(C)c2c1)[C@H](CO)N(C(=O)Nc1ccc(F)cc1)CC31CN(C(=O)c2ccc3c(c2)OCO3)C1` [Compound 123, (R)-1-(benzo[d] [1,3]dioxole-5-carbonyl)-N-(4-fluorophenyl)-1′-(hydroxymethyl)-7′-methoxy-9′-methyl-3′,9′-dihydrospiro [azetidine-3,4′-pyrido[3,4-b]indole]-2′(1′H)-carboxamide] was 683 nM; that for `CCS(=O)(=O)N1CCC2(CC1)CN(S(=O)(=O)c1ccc(C)cc1)[C@@H](CO)c1[nH]c3cc(OC)ccc3c12` [Compound 124, (R)-(1-(ethylsulfony1)-7′-methoxy-2′-tosyl-1′,2′,3′,9′-tetrahydrospiro [piperidine-4,4′-pyrido[3,4-b]indol]-1′-yl)methanol] was 880 nM; that for `COc1ccc2c3c(n(C)c2c1)[C@@H](CO)N(C(=O)C1CC1)CC31CCN(C(=O)Nc2cccc(F)c2)CC1` [Compound 125, (S)-2′-(cyclopropanecarbonyl)-N-(3-fluorophenyl)-1′-(hydroxymethyl)-7′-methoxy-9′-methyl-1′,2′,3′,9′-tetrahydrospiro [piperidine-4,4′-pyrido[3,4-b]indole]-1-carboxamide] was 343 nM.

For the compound `COc1ccc(NC(=O)N2CC3(C2)CN(C(=O)C2CCC2)[C@H](CO)c2c3c3ccc(OC)cc3n2C)cc1` [Compound 126, (S)-2′-(cyclobutanecarbonyl)-1′-(hydroxymethyl)-7′-methoxy-N-(4-methoxyphenyl)-9′-methyl-1′,2′,3′,9′-tetrahydrospiro [azetidine-3,4′-pyrido[3,4-b]indole]-1-carboxamide], the EC50 is 437 nM. The value for `COc1cccc(CN2CC3(CCN(Cc4ccccn4)CC3)c3c([nH]c4cc(OC)ccc34)[C@@H]2CO)c1` [Compound 127, (R)-(7′-methoxy-2′-(3-methoxybenzyl)-1-(pyridin-2-ylmethyl)-1′,2′,3′,9′-tetrahydrospiro [pipendine-4,4′-pyrido[3,4-b]indol]-1′-yl) methanol] was 1790 nM; that for `COc1ccc2c3c([nH]c2c1)[C@H](CO)N(C(=O)Nc1ccc(F)cc1)CC31CCN(S(=O)(=O)c2cccc(F)c2)CC1` [Compound 128, (R)-N-(4-fluorophenyl)-1-((3-fluorophenyl)sulfonyl)-1′-(hydroxymethyl)-7′-methoxy-3′,9′-dihydrospiro [piperidine-4,4′-pyrido[3,4-b]indole]-2′(1′H)-carboxamide] was 750 nM. The value for `COc1ccc2c3c(n(C)c2c1)[C@@H](CO)N(C(=O)c1ccc(F)cc1)CC31CCN(C(=O)Nc2ccc(F)cc2)CC1` [Compound 129] was 794 nM; that for `COc1ccc2c3c(n(C)c2c1)[C@@H](CO)NCC31CCN(Cc2ccc(-c3ccccn3)cc2)CC1` [Compound 130, (S)-(7′-methoxy-9′-methyl-1-(4-(pyridin-2-yl)benzyl)-1′,2′,3′,9′-tetrahydrospiro[piperidine-4,4′-pyrido[3,4-b]indol]-1′-yl)methanol] was 439 nM; that for `COc1ccc2c3c(n(C)c2c1)[C@H](CO)N(C(=O)Nc1ccc(F)cc1)CC31CCN(C(=O)c2ccc3c(c2)OCO3)CC1` [Compound 131, (R)-1-(benzo[d] [1,3]dioxole-5-carbonyl)-N-(4-fluorophenyl)-1′-(hydroxymethyl)-7′-methoxy-9′-methyl-3′,9′-dihydrospiro [piperidine-4,4′-pyrido[3,4-b]indole]-2′(1′H)-carboxamide] was 892 nM. Take `COc1ccc2c3c(n(C)c2c1)[C@@H](CO)N(Cc1ccc(Cl)cc1)CC31CCN(CC2CC2)CC1` [Compound 132, (S)-(2′-(4-chlorobenzyl)-1-(cyclopropylmethyl)-7′-methoxy-9′-methyl-1′,2′,3′,9′-tetrahydrospiro [piperidine-4,4′-pyrido[3,4-b]indol]-1′-yl) methanol]: the EC50 stood at 1670 nM.

As for `COc1ccc2c3c([nH]c2c1)[C@@H](CO)N(Cc1ccncc1)CC31CCN(Cc2ccc(-c3ccccn3)cc2)CC1` [Compound 133, (S)-(7′-methoxy-1-(4-(pyridin-2-yl)benzy1)-2′-(pyridin-4-ylmethyl)-1′,2′,3′,9′-tetrahydrospiro [piperidine-4,4′-pyrido[3,4-b]indol]-1′-yl)methanol], the EC50 is 613 nM. For the compound `COc1ccc2c3c([nH]c2c1)[C@H](CO)N(Cc1ccncc1)CC31CN(Cc2ccc(-c3ccccn3)cc2)C1` [Compound 134, (R)-(7′-methoxy-1-(4-(pyridin-2-yl)benzyl)-2′-(pyridin-4-ylmethyl)-1′,2′,3′,9′-tetrahydrospiro [azetidine-3,4′-pyrido[3,4-b]indol]-1′-yl)methanol], the EC50 was 2970 nM.

With `COc1ccc2c3c(n(C)c2c1)[C@H](CO)N(Cc1ccc(Cl)cc1)CC31CCN(CC2CC2)CC1` [Compound 135, (R)-(2′-(4-chlorobenzyl)-1-(cyclopropylmethyl)-7′-methoxy-9′-methyl-1′,2′,3′,9′-tetrahydrospiro [piperidine-4,4′-pyrido[3,4-b]indol]-1′-yl) methanol], the EC50 was found to be 2230 nM. The value for `COc1ccc2c3c([nH]c2c1)[C@H](CO)N(C(C)=O)CC31CCN(c2nc3ccccc3[nH]2)CC1` [Compound 136, (R)-1-(1-(1H-benzo[d]imidazol-2-yl)-1′-(hydroxymethyl)-7′-methoxyspiro[piperidine-4,4′-pyrido[3,4-b]indol]-2′(1′H,3′H,9′H)-yl) ethanone] was 2470 nM; that for `COc1ccc2c3c([nH]c2c1)[C@H](CO)N(C(C)=O)CC31CCN(c2nc3ccccc3s2)CC1` [Compound 137, (R)-1-(1-(benzo[d]thiazol-2-yl)-1′-(hydroxymethyl)-7′-methoxyspiro [piperidine-4,4′-pyrido[3,4-b]indol]-2′(1′H,3′H,9′H)-yl) ethanone] was 5760 nM.

Source of the values: US9428507B2, “Compounds for the treatment of malaria” (The Broad Institute, Inc., priority 2013, dated 2016).
